From patent publication US9540373B2, “Substituted spirocycles” (Boehringer Ingelheim International GmbH, priority 2014, dated 2017)
Like-named read-outs stand apart in the source and are kept apart here.

What was measured:
[1] = system: neutrophil elastase activity in U937 cells; experiment: Determination of neutrophil elastase activity in U937 cytosolic lysate preparation after incubation with test compound; type: cell-based; conditions: Homo sapiens, U-937; U937 cells incubated 48 hours with compound, NE activity in lysate; read-out: Reduction of NE-activity in U937 cells IC50
Method: Determination of Neutrophil Elastase Activity in U937 Cytosolic Lysate Preparation after Incubation with Test Compound Materials:
24 well Nunclon cell culture plates (No. 142475) and 96 well plates (No. 267245) were from Nunc.
Dimethylsulfoxid (DMSO) was from Sigma (Prod. No. D8418). Nonidet-P40 (NP40) was from USBiological (Prod. No. N3500)
Substrate, specific for Neutrophil elastase, was from Bachem (MeOSuc-Ala-Ala-Pro-Val-AMC; Prod. No. I-1270).
Human neutrophil elastase was from Calbiochem (Prod. No. 324681)
Tris-buffer (100 mM Tris; 1M NaCl; pH 7.5)
Tris-buffer+HSA 0.1%; Human Serum Albumin from Calbiochem (Cat#. 126658)
Serine-protease buffer (20 mM Tris; 100 mM NaCl; pH 7.5)+0.1% HSA
Serine protease lysis buffer: 20 mM Tris-HCl; 100 mM NaCl pH 7.5; +0.2% Nonidet-P40;
PBS: phosphate buffered saline, without Ca and Mg, from Gibco
U937 from ECACC (Cat. No. 85011440) cultured in suspension at 37° C. and 5% CO2.
Cell density: 0.2-1 Mio. Cells/ml.
Medium: RPMI1640 GlutaMAX (No. 61870) with 10% FCS from Gibco
Cell Seeding and Treatment:
Compounds in 100% DMSO were diluted in Medium (−FCS) with 10% DMSO and further diluted according to the experiment planned.
20 μl of the compound solution was transferred in the respective wells of the 24 well plate and diluted with 2 ml cell suspension/well containing 1×10^5 cells/ml (final concentration of DMSO=0.1%). Compound dilution factor=100
Compounds (up to 7 concentrations) were tested in triplicates with 3 wells for the DMSO 0.1% control, incubated for 48 hours without medium change at 37° C., 5% CO2 and 95% relative humidity.
Cell Harvesting and Cell Lysate:
Transfer the cell suspension in 2 ml 96 well assay block. Separate cells from medium by centrifugation (500×g; 10 min; RT); discard the supernatant. Resuspend in 1 ml PBS; centrifugation (500×g; 10 min; RT); wash cells twice with PBS. Add 80 μl Serine protease lysis buffer (ice cold) to the cell pellet; resuspend the pellet and store on ice for 10 minutes. Remove debris by centrifugation at 1000×g for 10 min at 4° C. Transfer 80-100 μl lysate supernatant in 96 well plate and store immediately at −80° C.
Neutrophil Elastase Activity Assay:
Frozen lysates were thaw at 37° C. for 10 minutes and stored on ice. Protein content was determined with Bradford protein assay. Lysates were diluted to 0.2-0.5 mg/ml protein in serine protease buffer+HSA.
Standard: NE (100 μg/ml stock solution in Tris-buffer; stored at −80° C.) was diluted in Tris-buffer+HSA to 750 ng/ml, and further serially diluted 1:2 for the standard curve. Buffer, blank, standard and lysate samples were transferred into 384 well plate
Blank: 5 μl Tris-buffer+10 μl Serine protease buffer+5 μl Substrate
Standard: 5 μl Tris-buffer+10 μl NE (diff. conc.)+5 μl Substrate
Lysate: 5 μl Tris-buffer+10 μl Lysat+5 μl Substrate
The increase in fluorescence (Ex360 nm/Em 460 nm) is determined after 30 minutes with a Molecular Device Spectramax M5 Fluorescence Reader. The result is interpolated to ng/mg lysate protein using excel formula functions. Percent inhibition in the compound-treated lysate samples is calculated relative to the DMSO-treated control-sample (100−(compound-sample*100)/control-sample)
A test compound will give values between 0% and 100% inhibition of neutrophil elastase. IC50 is calculated using Graphpad Prism; nonlinear fitting (log(inhibitor) vs. response—Variable slope). The IC50 value is interpolated as the concentration of test compound which leads to a neutrophil elastase activity reduction of 50% (relative to the DMSO-treated control).

[2] = target: recombinant human DPPI (Cathepsin C) (Homo sapiens (Human), UniProt P53634); experiment: Inhibition of human DPPI (Cathepsin C); type: biochemical
Chain of recombinant human DPPI (Cathepsin C) (P53634 231-394): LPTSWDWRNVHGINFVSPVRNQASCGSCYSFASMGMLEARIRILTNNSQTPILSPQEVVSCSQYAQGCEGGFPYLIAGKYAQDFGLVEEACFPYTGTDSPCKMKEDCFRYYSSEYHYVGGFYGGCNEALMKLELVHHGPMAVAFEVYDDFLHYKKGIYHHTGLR
Chain of recombinant human DPPI (Cathepsin C) (P53634 25-134): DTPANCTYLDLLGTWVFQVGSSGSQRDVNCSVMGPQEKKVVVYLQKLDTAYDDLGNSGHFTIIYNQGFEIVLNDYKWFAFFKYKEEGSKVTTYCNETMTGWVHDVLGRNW
Chain of recombinant human DPPI (Cathepsin C) (P53634 395-463): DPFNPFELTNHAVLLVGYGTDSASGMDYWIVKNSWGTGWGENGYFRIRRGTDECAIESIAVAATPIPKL
Method: Inhibition of Human DPPI (Cathepsin C)
The analysis of the data was performed by calculating the percentage of fluorescence in the presence of test compound in comparison to the fluorescence of the vehicle control after 20 subtracting the background fluorescence using the following formula: (RFU(sample)−RFU(background))*100/(RFU(control)−RFU(background))
Data from these calculations were used to generate IC50 values for inhibition of DPPI, respectively.

[3] = Determination of metabolic stability with human liver microsomes; type: in vitro ADME; conditions: pH 7.6; pooled human liver microsomes, 1 mg/ml protein, 1 μM compound, 37° C., NADPH; read-out: In vitro stability in human liver microsome incubations t1/2
Method: Determination of Metabolic Stability with Human Liver Microsomes
The metabolic degradation of the test compound is assayed at 37° C. with pooled human liver microsomes. The final incubation volume of 100 μl per time point contains TRIS buffer pH 7.6 (0.1 M), magnesium chloride (5 mM), microsomal protein (1 mg/ml) and the test compound at a final concentration of 1 μM. Following a short preincubation period at 37° C., the reactions are initiated by addition of beta-nicotinamide adenine dinucleotide phosphate, reduced form (NADPH, 1 mM) and terminated by transferring an aliquot into acetonitrile after different time points. Additionally, the NADPH-independent degradation is monitored in incubations without NADPH, terminated at the last time point. The [%] remaining test compound after NADPH independent incubation is reflected by the parameter c (control) (metabolic stability). The quenched incubations are pelleted by centrifugation (10′000 g, 5 min.) An aliquot of the supernatant is assayed by LC-MS/MS for the amount of parent compound.
The half-life (t1/2 INVITRO) is determined by the slope of the semilogarithmic plot of the concentration-time profile. The intrinsic clearance (CL_INTRINSIC) is calculated by considering the amount of protein in the incubation: CL_INTRINSIC [μl/min/mg protein]=(ln 2/(half-life [min]*protein content [mg/ml]))*1′000.

[4] = recombinant human DPPI, substrate Gly-Arg-AMC, pH 6.0, read-out: Inhibition of DPPI IC50

Compound | IC50 [1] [nM] | IC50 [2, 4] [nM] | half-life at 1 μM [3] [h] | IC50 ([2]; Table 14, compounds examined in X-ray crystallography, read-out: CatC IC50) [nM]
CN1CCC2(CC1)OCc1ccc(-c3ccc(C[C@@H](C#N)NC(=O)[C@H]4N[C@@H]5CC[C@H]4C5)c(F)c3)cc12 [Example 14] | 1.1 | 1 | > 2.17 | 
CN1CCC2(CCc3ccc(-c4ccc(C[C@@H](C#N)NC(=O)[C@H]5N[C@@H]6CC[C@H]5C6)c(F)c4)cc32)CC1 [Example 15] | 0.2 | 0.5 | > 2.17 | 
N#C[C@H](Cc1ccc(-c2ccc3c(c2)C2(CCNC2)C(=O)N3)cc1F)NC(=O)[C@H]1N[C@@H]2CC[C@H]1C2 (stereo partly shown) [Example 16] | 73.8 | 0.5 | > 2.17 | 0.5
CN1CCCC2(C1)C(=O)N(C)c1ccc(-c3ccc(C[C@@H](C#N)NC(=O)[C@H]4N[C@@H]5CC[C@H]4C5)c(F)c3)cc12 (stereo partly shown) [Example 17] | 0.6 | 1.6 | 1 | 
N#C[C@H](Cc1ccc(-c2cc3c(cn2)C(=O)OC32CCNCC2)cc1F)NC(=O)[C@H]1N[C@@H]2CC[C@H]1C2 [Example 18] | 220 | 1.6 | > 2.17 | 
CN1CCC2(CC1)OC(=O)c1cnc(-c3ccc(C[C@@H](C#N)NC(=O)[C@H]4N[C@@H]5CC[C@H]4C5)c(F)c3)cc12 [Example 19] | 5 | 1 | > 2.17 | 
CN1CCC2(C1)OC(=O)c1cnc(-c3ccc(C[C@@H](C#N)NC(=O)[C@H]4N[C@@H]5CC[C@H]4C5)c(F)c3)cc12 (stereo partly shown) [Example 20] | 23.2 | 1.6 | > 2.17 | 
CN1CCC2(CC1)OC(=O)c1ncc(-c3ccc(C[C@@H](C#N)NC(=O)[C@H]4N[C@@H]5CC[C@H]4C5)c(F)c3)cc12 [Example 21] | 63.7 | 1.4 | > 2.17 | 
N#C[C@H](Cc1ccc(-c2cc3c(cn2)C(=O)OC32CCN(C3COC3)CC2)cc1F)NC(=O)[C@H]1N[C@@H]2CC[C@H]1C2 [Example 22] | 15.7 | 4.8 | > 2.17 | 
N#C[C@H](Cc1ccc(-c2cc3c(cn2)COC32CCN(C3COC3)CC2)cc1F)NC(=O)[C@H]1N[C@@H]2CC[C@H]1C2 [Example 23, (1S,2S,4R)—N-[(1S)-1-cyano-2-[2-fluoro-4-[1′-(oxetan-3-yl)spiro[3H-furo[3,4-c]pyridine-1,4′-piperidine]-6-yl]phenyl]ethyl]-3-azabicyclo[2.2.1]heptane-2-carboxamide] | 7.5 | 5 | > 2.17 | 
N#C[C@H](Cc1ccc(-c2ccc3c(n2)C2(CCN(C4COC4)CC2)OC3=O)cc1F)NC(=O)[C@H]1N[C@@H]2CC[C@H]1C2 [Example 24] | 6 | 2.7 | > 2.17 | 
CN1CCC2(CC1)OCc1cnc(-c3ccc(C[C@@H](C#N)NC(=O)[C@H]4N[C@@H]5CC[C@H]4C5)c(F)c3)cc12 [Example 26, (1S,2S,4R)—N-[(1S)-1-cyano-2-[2-fluoro-4-(1′-methylspiro[3H-furo[3,4-c]pyridine-1,4′-piperidine]-6-yl)phenyl]ethyl]-3-azabicyclo[2.2.1]heptane-2-carboxamide] | 4.6 | 2 | 0.917 | 
